Patent publication US20230346773A1, “USE OF PCSK9 INHIBITOR IN PREPARATION OF PRODUCT FOR TREATING MULTIPLE DISEASES” (priority 2020, published 2023)
Marks after values point to notes of the source that are not given here.

Experiments:
[1] = test system: rabbit ear acne model; experiment: Rabbit ear acne model induced by 2% coal tar; type: in vivo, New Zealand rabbits; conditions: n = 10; for Skin thickness: rabbit ear epidermis; for Hair follicle area / Sebaceous gland diameter: rabbit ear; for Histological grading of acne: number of animals graded − / Histological grading of acne: number of animals graded 1+ / Histological grading of acne: number of animals graded 2+ / Histological grading of acne: number of animals graded 3+: right ear; for Histological grading of acne: number of animals graded −: grade 0: only loose keratinized cells in the infundibulum, without acne; for Histological grading of acne: number of animals graded 1+: grade 1: small amount of dense keratinized material, infundibulum not expanded; for Histological grading of acne: number of animals graded 2+: grade 2: moderately dense keratinized material extending to sebaceous glands, infundibulum expands; for Histological grading of acne: number of animals graded 3+: grade 3: extensive keratinized material, severe expansion of hair follicles
Excerpt: The inner side of the right ear of the rabbits was taken as the observation area, the left ear of all rabbits was used as the self-negative control, and 95% alcohol was applied. The inner side of the right ear of the model group and the treatment group were smeared with 2% coal tar (Alfa Aesar China Company, 2% coal tar solution made with 95% alcohol), and evenly applied to the opening of the ear canal on the inner side of the rabbit ear with a sterile cotton swab in a range of about 2 cm×2 cm, once a day, 0.5 mL each time. Then the previous application was wiped with warm water. […] 18 hours after the last coating, the samples were sacrificed, fixed in 10% formaldehyde, embedded in paraffin, and stained with HE for histopathological analysis.
Histological grading standard of the acne model: […], according to histology. Grade 0 means that there are only loose keratinized cells in the infundibulum, without acne forming the “1”; grade 1: the skin on the surface of the rabbit ear is red, or a small amount of dense keratinized material is seen in the infundibulum of the hair follicle, and the infundibulum is not expanded “+”; grade 2: moderately dense keratinized material is seen in the infundibulum of the hair follicle, and it extends to the sebaceous glands, with the proliferation of sebaceous gland ducts, the infundibulum expands by “2+”; grade 3: extensive keratinized material in the hair follicle. Tight keratin embolism in hair follicles causes severe expansion of hair follicles, obvious hyperplasia of sebaceous duct epithelium, skin bulges and scars, and some sebaceous glands degenerate into “3+”.
Histopathological changes were observed under a microscope, and the thickness of 5 different epidermises on a slice was measured with the Biomias99 image analysis system, and the average value was calculated; the area of two hair follicles with the same position and the most complete structure and the diameter of four sebaceous glands were detected, and the average value of each was calculated, and then the data of the left and right external auditory canals of each group were subtracted to obtain the difference in the thickness of the epidermis, the difference in hair follicle area and the diameter of the sebaceous gland in the left and right ears of each rabbit.

[2] = test system: androgenetic alopecia (SA) rat model; experiment: Androgenetic alopecia (SA) rat model induced by testosterone propionate; type: in vivo, Wistar rats; conditions: for Skin hair follicles and sebaceous glands: number of rats graded ++ / Skin hair follicles and sebaceous glands: number of rats graded ± / Skin hair follicles and sebaceous glands: number of rats graded + / Skin hair follicles and sebaceous glands: number of rats graded − / Skin hair follicles and sebaceous glands: number of rats graded +++: 10 rats, after 60 days; for Skin hair follicles and sebaceous glands: number of rats graded ++: few follicles with cystic degeneration, sebaceous glands mild hyperplasia and hypertrophy; for Skin hair follicles and sebaceous glands: number of rats graded ±: no hyperplasia in the dermis, limited lesions of hair follicles and sebaceous glands, no subcutaneous inflammation; for Skin hair follicles and sebaceous glands: number of rats graded +: no obvious hyperplasia in dermis, obviously cystic follicles, no inflammation; for Skin hair follicles and sebaceous glands: number of rats graded −: normal skin dermal tissue cells, subcutaneous hair follicles and sebaceous glands; for Skin hair follicles and sebaceous glands: number of rats graded +++: segmental hyperplasia, degenerated follicles, hyperplasia of sebaceous glands, mild inflammatory hyperplasia; for 15 d hair length / 30 d hair length / 45 d hair length / 60 d hair length: rats; for 15 d hair length: 15 days after administration; for 30 d hair length: 30 days after administration; for 45 d hair length: 45 days after administration; for 60 d hair length: 60 days after administration
Protocol: SPF grade Wistar rats were selected and randomly divided into compound group 1 (skin applied with 5% R-IMPP solution), compound group 2 (skin applied with 5% PF 06446846 solution), and compound group 3 (skin applied with 5% SBC-115076 solution), compound group 4 (skin applied with 5% SBC-110736 solution), monoclonal antibody group 1 (subcutaneous injection of PCSK9 monoclonal antibody ab84041, 5 mg/kg·d), monoclonal antibody group 2 (subcutaneous injection of Evolocumab, 5 mg/kg·d), monoclonal antibody group 3 (subcutaneous injection of Alirocumab, 5 mg/kg·d), PCSK9 RNAi inhibitor group-1 (skin applied with 5% PCSK9 small interfering RNA-1 solution), PCSK9 RNAi inhibitor group-2 (skin applied with 5% PCSK9 small interfering RNA-2 solution), PCSK9 RNAi inhibitor group-3 (skin applied with 5% PCSK9 small interfering RNA-3 solution), and polypeptide group (subcutaneous injection of Abcam company ab32727, 3 mg/kg·d), positive control group (skin smeared with 5% minoxidil tincture), negative control group (smeared with 75% ethanol), model control group (smeared with 75% ethanol), 10 rats in each group, half male and half female.
Before the experiment, each rat selected an area of 4 cm×5 cm on the back to remove the hair as the observation area. Except for the negative control group, the rats were subcutaneously injected with testosterone propionate injection [[…]] at the back of the neck, once a day for 60 consecutive days to establish the SA model. […] At the same time, the rats in the corresponding drug group were smeared or subcutaneously injected on the skin of the observation area of the rats in the drug group, smeared 1 ml/(per time), twice a day, with an interval of 8 hours, and administered by subcutaneous injection, once a day. The negative control group and the model control group were smeared with excipient (75% ethanol solution), 1 mL one rat per time, twice a day, for 60 consecutive days.
10 hairs were extracted from the observation area on the back of each rat every 15 days after administration, and the hair length was measured with a vernier caliper. After 60 days of administration, the skin of the experimental observation area was taken for routine tissue dehydration, paraffin embedding, HE staining, and light microscopy to observe the histopathological changes of the rat skin hair follicles and sebaceous glands. Semi-quantitative analysis was carried out in each group. The grading standards are as follows: normal skin dermal tissue cells, subcutaneous hair follicles, and sebaceous glands were marked as “one”; no hyperplasia in the dermis, limited lesions of hair follicles and sebaceous glands, and no subcutaneous inflammation, marked as “±”; no obvious hyperplasia found in the dermis, obviously cystic follicles, no obvious hyperplasia found in the sebaceous glands, and no inflammation is recorded as “+”; segmental hyperplasia of skin and dermis was not obvious, a small number of hair follicles had cystic degeneration, and sebaceous glands had mild hyperplasia and hypertrophy. No obvious inflammation under the skin was recorded as “++”; the skin and dermis tissue cells had segmental hyperplasia of different degrees, some follicles degenerated, the size of the hair follicles was uneven, and there were no cells in the periphery. There was hyperplasia of sebaceous glands, and there were few nuclei in the hyperplasia glands. Individual rats had mild inflammatory hyperplasia under the skin, which was marked as “+++”.

Molecule | Skin thickness [1] [mm] | Hair follicle area [1] | Sebaceous gland diameter [1] [mm] | Histological grading of acne: number of animals graded − [1] | Histological grading of acne: number of animals graded 1+ [1] | Histological grading of acne: number of animals graded 2+ [1] | Histological grading of acne: number of animals graded 3+ [1] | Skin hair follicles and sebaceous glands: number of rats graded ++ [2] | Skin hair follicles and sebaceous glands: number of rats graded ± [2] | Skin hair follicles and sebaceous glands: number of rats graded + [2] | Skin hair follicles and sebaceous glands: number of rats graded − [2] | Skin hair follicles and sebaceous glands: number of rats graded +++ [2] | 15 d hair length [2] | 30 d hair length [2] | 45 d hair length [2] | 60 d hair length [2]
Alirocumab [Monoclonal antibody group 3] | 0.1547 ± 0.0149 | 0.1526 ± 0.0723* mm^2 | 0.0435 ± 0.0285 | 9 | 1 | 0 | 0 | 1 | 4 | 2 | 3 | 0 | 9.5* mm | 10.5* mm | 15.5* mm | 19.2* mm
Inclisran [RNA interference group 2] | 0.1856 ± 0.0179 | 0.1836 ± 0.0856* mm^2 | 0.0561 ± 0.0423 | 6 | 3 | 1 | 0 | 1 | 4 | 4 | 1 | 0 | 8.3* mm | 9.1* mm | 14.5* mm | 16.9* mm
COc1ccc(CCC(=O)N(c2nccc3ccccc23)[C@@H]2CCCNC2)cc1 [Compound group 1, R-IMPP] | 0.2433 ± 0.0196 | 0.2726 ± 0.0842* mm^2 | 0.0512 ± 0.0327 | 6 | 3 | 1 | 0 | 3 | 5 | 2 | 0 | 0 | 8.9* mm | 9.9* mm | 14.7* mm | 18.2* mm
CC(=O)Nc1ccc(C(=O)N2CCN(c3ccc(C)cc3)CC2c2ccccc2)cc1 (stereo not drawn) [Compound group 4, SBC-110736] | 0.2276 ± 0.0193 | 0.2853 ± 0.0879* mm^2 | 0.0561 ± 0.0362 | 5 | 2 | 3 | 0 | 2 | 4 | 3 | 1 | 0 | 8.1* mm | 8.6* mm | 14.3* mm | 17.3* mm
ALN-PCS [RNA interference group 3] | 0.1987 ± 0.0185 | 0.1921 ± 0.0933* mm^2 | 0.0615 ± 0.0476 | 5 | 4 | 1 | 0 | 2 | 3 | 4 | 1 | 0 | 8.2* mm | 8.9* mm | 14.2* mm | 16.7* mm
Cc1cc(C(=O)C2=C(O)C(=O)N(CCCN3CCOCC3)C2c2ccncc2)ccc1OCc1ccccc1 (stereo not drawn) [Compound group 3, SBC-115076] | 0.2245 ± 0.0185 | 0.2836 ± 0.0851* mm^2 | 0.0542 ± 0.0346 | 5 | 3 | 2 | 0 | 3 | 4 | 2 | 1 | 0 | 8.3* mm | 8.8* mm | 14.5* mm | 17.6* mm
